Experimental data taken from PubChem BioAssay AID248 (DTP/NCI, 2004).
Inconclusive results and toxic doses are left out. Cut-off read from the data, not from the text of the source: active = T/C of 150% or more; inactive = T/C below 125%.

System: L1210 leukemia ip in BDF1 mice, survival T/C
Assay: NCI In Vivo Anticancer Drug Screen. Data for tumor model L1210 Leukemia (intraperitoneal) in B6D2F1 (BDF1) mice
Conditions: endpoint: mean survival time, higher = longer survival
Outline: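 Read-out is survival time, reported as the treated-group measurement over the vehicle-control measurement.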

[1] = dose: 100.0 mg/kg/injection, schedule: Q01DX009 (ip), vehicle: saline
[2] = dose: 100.0 mg/kg/injection, schedule: Q04DX003 (ip), vehicle: saline
[3] = dose: 200.0 mg/kg/injection, schedule: Q01DX009 (ip), vehicle: saline
[4] = dose: 200.0 mg/kg/injection, schedule: Q04DX003 (ip), vehicle: saline
[5] = dose: 400.0 mg/kg/injection, schedule: Q01DX009 (ip), vehicle: saline
[6] = dose: 400.0 mg/kg/injection, schedule: Q04DX003 (ip), vehicle: saline
[7] = dose: 25.0 mg/kg/injection, schedule: Q01DX009 (ip), vehicle: Klucel (hydroxypropylcellulose) (HPC)
[8] = dose: 50.0 mg/kg/injection, schedule: Q01DX009 (ip), vehicle: Klucel (hydroxypropylcellulose) (HPC)
[9] = dose: 100.0 mg/kg/injection, schedule: Q01DX001 (ip), vehicle: saline
[10] = dose: 100.0 mg/kg/injection, schedule: Q01DX009 (ip), vehicle: Klucel (hydroxypropylcellulose) (HPC)
[11] = dose: 200.0 mg/kg/injection, schedule: Q01DX001 (ip), vehicle: saline
[12] = dose: 400.0 mg/kg/injection, schedule: Q01DX001 (ip), vehicle: saline

Measured: T/C

COc1ccccc1NC(=O)c1cc2ccccc2cc1O
inactive: [1] 109 % of control | [2] 100 % of control | [3] 104 % of control | [4] 100 % of control | [5] 100 % of control | [6] 98 % of control

c1ccc(C2CN3CCSC3=N2)cc1 (stereo not drawn)
inactive: dose: 0.78 mg/kg/injection, schedule: Q04DX003 (ip), vehicle: saline 102 % of control | dose: 1.56 mg/kg/injection, schedule: Q01DX009 (ip), vehicle: saline 97 % of control | dose: 1.56 mg/kg/injection, schedule: Q04DX003 (ip), vehicle: saline 100 % of control | dose: 3.12 mg/kg/injection, schedule: Q01DX009 (ip), vehicle: saline 100 % of control | dose: 3.12 mg/kg/injection, schedule: Q04DX003 (ip), vehicle: saline 98 % of control | dose: 6.25 mg/kg/injection, schedule: Q01DX009 (ip), vehicle: saline 102 % of control | dose: 6.25 mg/kg/injection, schedule: Q04DX003 (ip), vehicle: saline 104 % of control | dose: 12.5 mg/kg/injection, schedule: Q01DX009 (ip), vehicle: saline 94 % of control | dose: 12.5 mg/kg/injection, schedule: Q04DX003 (ip), vehicle: saline 107 % of control | dose: 25.0 mg/kg/injection, schedule: Q01DX009 (ip), vehicle: saline 105 % of control | dose: 25.0 mg/kg/injection, schedule: Q04DX003 (ip), vehicle: saline 114 % of control

CNc1ccc(/C=N/CCl)cc1
inactive: dose: 100.0 mg/kg/injection, schedule: Q04DX003 (ip), vehicle: saline with Tween-80 92 % of control | dose: 200.0 mg/kg/injection, schedule: Q04DX003 (ip), vehicle: saline with Tween-80 91 % of control | dose: 400.0 mg/kg/injection, schedule: Q04DX003 (ip), vehicle: saline with Tween-80 96 % of control

CO[C@H]1/C=C/O[C@@]2(C)Oc3c(C)c(O)c4c(O)c(c(/C=N/N5CCN(C)CC5)c(O)c4c3C2=O)NC(=O)/C(C)=C\C=C\[C@H](C)[C@H](O)[C@@H](C)[C@@H](O)[C@@H](C)[C@H](OC(C)=O)[C@@H]1C
inactive: [7] 96 % of control | dose: 50.0 mg/kg/injection, schedule: Q01DX001 (ip), vehicle: water 97 % of control | [8] 94 % of control | [9] 97 % of control | dose: 100.0 mg/kg/injection, schedule: Q01DX001 (ip), vehicle: water 103 % of control | [10] 94 % of control | [11] 100 % of control | dose: 200.0 mg/kg/injection, schedule: Q01DX001 (ip), vehicle: water 100 % of control | [12] 97 % of control | dose: 400.0 mg/kg/injection, schedule: Q01DX001 (ip), vehicle: water 108 % of control | dose: 1200.0 mg/kg/injection, schedule: Q01DX001 (ip), vehicle: acetone 102 % of control

CC(=O)Oc1ccc(OC(C)=O)c2cc3ccccc3cc12
inactive: dose: 100.0 mg/kg/injection, schedule: Q01DX001 (ip), vehicle: carboxymethylcellulose (CMC) 87 % of control | dose: 200.0 mg/kg/injection, schedule: Q01DX001 (ip), vehicle: carboxymethylcellulose (CMC) 93 % of control | dose: 400.0 mg/kg/injection, schedule: Q01DX001 (ip), vehicle: carboxymethylcellulose (CMC) 91 % of control

C#CCOC(=O)CCC(=O)OCC#C
inactive: [9] 103 % of control | [1] 94 % of control | [2] 94 % of control | [11] 100 % of control | [3] 97 % of control | [4] 96 % of control | [12] 100 % of control | [5] 94 % of control | [6] 98 % of control

CN(NC(=O)OCc1ccccc1)C(=O)OCc1ccccc1
inactive: dose: 12.5 mg/kg/injection, schedule: Q01DX009 (ip), vehicle: Klucel (hydroxypropylcellulose) (HPC) 98 % of control | dose: 12.5 mg/kg/injection, schedule: Q04DX003 (ip), vehicle: Klucel (hydroxypropylcellulose) (HPC) 93 % of control | [7] 93 % of control | dose: 25.0 mg/kg/injection, schedule: Q04DX003 (ip), vehicle: Klucel (hydroxypropylcellulose) (HPC) 103 % of control | [8] 108 % of control | dose: 50.0 mg/kg/injection, schedule: Q04DX003 (ip), vehicle: Klucel (hydroxypropylcellulose) (HPC) 112 % of control | [10] 90 % of control | dose: 100.0 mg/kg/injection, schedule: Q04DX003 (ip), vehicle: Klucel (hydroxypropylcellulose) (HPC) 89 % of control | dose: 200.0 mg/kg/injection, schedule: Q01DX009 (ip), vehicle: Klucel (hydroxypropylcellulose) (HPC) 90 % of control | dose: 200.0 mg/kg/injection, schedule: Q04DX003 (ip), vehicle: Klucel (hydroxypropylcellulose) (HPC) 106 % of control | dose: 400.0 mg/kg/injection, schedule: Q04DX003 (ip), vehicle: Klucel (hydroxypropylcellulose) (HPC) 110 % of control

CC(=O)Nc1ccc(OCc2ccccc2)cc1[N+](=O)[O-]
inactive: dose: 50.0 mg/kg/injection, schedule: Q01DX001 (ip), vehicle: saline 95 % of control | [9] 101 % of control | [11] 98 % of control | [12] 93 % of control

C=CCCCCCCCCCNc1cc2c3c(c1)CCCN3CCC2
inactive: dose: 0.19 mg/kg/injection, schedule: Q01DX003 (ip), vehicle: saline 90 % of control | dose: 0.19 mg/kg/injection, schedule: Q01DX009 (ip), vehicle: saline 108 % of control | dose: 0.39 mg/kg/injection, schedule: Q01DX003 (ip), vehicle: saline 98 % of control | dose: 0.39 mg/kg/injection, schedule: Q01DX009 (ip), vehicle: saline 98 % of control | dose: 0.78 mg/kg/injection, schedule: Q01DX003 (ip), vehicle: saline 101 % of control
